From patent publication US6066628A, “Non-iron metalloporphyrins and methods of use” (Emory University, priority 1998, dated 2000) come the findings set out here.

≈ marks a conversion by molar mass, not a printed value. Where “and” joins values, the source holds several entries; their conditions need not be identical. Identical values can stand only once. Like-named read-outs stand apart in the source and are kept apart here.

In experiment [1] the test system is Y. enterocolitica. Put plainly: microbe, parasite or virus in culture. Format: cell-based.
For experiment [2], the system named is S. aureus. The experiment is classed as cell-based, Staphylococcus aureus. The following applies: for MIC: S. aureus IR2419, dark (Table 10); for Minimal inhibitory concentration (MIC): methicillin-resistant S. aureus IR219, Nutrient broth (Table 2); for antibacterial activity: S. aureus.
Experiment [3] relates to M. smegmatis. The experiment is classed as cell-based, Mycobacterium smegmatis. The following applies: for MIC / Minimal inhibitory concentration (MIC): M. smegmatis LR222; for MIC: dark (Table 10); for Minimal inhibitory concentration (MIC): LB + Tween 80 (Table 2); for antibacterial activity: M. smegmatis.
In a further experiment the test system is bacteria. Format: cell-based. The following applies: for MICs: porphyrins without Ga ions, all tested bacteria.
The subject of experiment [4] is S. aureus. The experiment can be described thus: Competition of heme/protoporphyrin IX with Ga-PPIX antibacterial activity. Format: cell-based, Staphylococcus aureus.
Experiment [5] deals with M. smegmatis. The experiment is described as above.
Experiment [6] has as its system Y. enterocolitica. The description is as above.
Experiment [7] relates to Y. enterocolitica. The experiment can be described thus: Minimal bactericidal concentration. The following applies: reduces plating efficiency more than 99.9%, minimal exposure to light; for MBC: Yersinia enterocolitica. Format: cell-based.
Experiment [8] deals with S. aureus. The experiment can be described thus: Minimal bactericidal concentration. Format: cell-based, Staphylococcus aureus. The following applies: reduces plating efficiency more than 99.9%, minimal exposure to light; for MBC: Staphylococcus aureus. As to the method:
Minimal bactericidal concentrations (MBCs) were determined essentially the same way as MICs except that the amount of killing with a particular concentration of porphyrin derivative was determined by plating on solid microbiological media (LB plates or LB+Tween 80). Media were solidified by the incorporation of 1.5% agar (Difco Laboratories). Concentrations of porphyrins that produced 99.9% reduction in bacterial counts were considered bactericidal [Hindler et al. (1994) supra].
MBC were determined by plating bacterial cultures that have been incubate
in the presence of MPs at concentrations higher than MIC. MBC was defined
as a concentration of a particular MP which reduces the plating efficienc
more than 99.9%. Experiments were done with minimal exposure to light
(addition of porphyrins waa done in the presence of artifical light).

For experiment [9], the system named is M. smegmatis. The experiment can be described thus: Minimal bactericidal concentration. Format: cell-based, Mycobacterium smegmatis. The following applies: reduces plating efficiency more than 99.9%, minimal exposure to light; for MBC: Mycolicibacterium smegmatis.
The mark [10] stands for this setting: +1 μg/ml Ga-PPIX, competitor 1 μg/ml.
Where [11] appears, read: +1 μg/ml Ga-PPIX, competitor 10 μg/ml.
The mark [12] stands for this setting: +1 μg/ml Ga-PPIX, competitor 20 μg/ml.
Where [13] appears, read: +1 μg/ml Ga-PPIX, competitor 100 μg/ml.
Setting [14] is: -1 μg/ml Ga-PPIX (without Ga-PPIX), 1 μg/ml.
[15] abbreviates: -1 μg/ml Ga-PPIX (without Ga-PPIX), 10 μg/ml.
The mark [16] stands for this setting: -1 μg/ml Ga-PPIX (without Ga-PPIX), 20 μg/ml.
[17] abbreviates: -1 μg/ml Ga-PPIX (without Ga-PPIX), 100 μg/ml.
[18] abbreviates: Staphylococcus aureus, read-out: MIC.
[19] abbreviates: Mycolicibacterium smegmatis, read-out: MIC.
[20] abbreviates: iron restriction / 2,2'-dipyridyl.

With `C=Cc1c(C)c2cc3nc(c(CC(=O)O)c4[nH]c(cc5nc(cc1[nH]2)C(C)=C5CC)c(C)c4C(=O)O)[C@@H](CCC(=O)O)[C@@H]3C` [Ce6, chlorin e6, reference compound], the MIC in the experiment with Y. enterocolitica [1] is 20 and > 10; with S. aureus [2] it was 20 µg/mL (≈ 33.5 µM); in the experiment with M. smegmatis [3], 20 µg/mL (≈ 33.5 µM). Further, the “MICs” value in the experiment with bacteria is “very large MICs”.
On to `C=CC1=C(C)c2cc3[n-]c(cc4[n-]c(cc5nc(cc1n2)C(C)=C5C=C)c(C)c4CCC(=O)O)c(CCC(=O)O)c3C.[Cu+2]` [Cu-PPIX], for which the “Minimal inhibitory concentration (MIC)” value in the experiment with Y. enterocolitica [1] is 20; in the experiment with S. aureus [2], over 40 µg/mL; with M. smegmatis [3], 20 µg/mL.
`C=CC1=C(C)c2cc3[n-]c(cc4[n-]c(cc5nc(cc1n2)C(C)=C5C=C)c(C)c4CCC(=O)O)c(CCC(=O)O)c3C.[Fe+2]` [Fe-PPIX]: the “Minimal inhibitory concentration (MIC)” value in the experiment with Y. enterocolitica [1] is over 40; in the experiment with S. aureus [2], over 40 µg/mL; in the experiment on M. smegmatis [3], over 40 µg/mL. For the same compound, the growth entry is recorded as “-” with S. aureus [4] (setting [10]); “-” with S. aureus [4] (setting [11]); “-” in the experiment with S. aureus [4] (setting [12]); “-” with S. aureus [4] (setting [13]); “+” in the experiment with S. aureus [4] (setting [14]); “+” in the experiment with S. aureus [4] (setting [15]). The growth result in the experiment with S. aureus [4] (setting [16]) is reported as “+”; in the experiment on S. aureus [4] (setting [17]), “+”; with M. smegmatis [5] (setting [10]) it was “-”; in the experiment on M. smegmatis [5] (setting [11]), “-”; in the experiment with M. smegmatis [5] (setting [12]) it was “-”; in the experiment with M. smegmatis [5] (setting [13]), “-”. Besides, the growth result in the experiment on M. smegmatis [5] (setting [14]) is “+”; in the experiment on M. smegmatis [5] (setting [15]), “+”; with M. smegmatis [5] (setting [16]) it was “+”; in the experiment with M. smegmatis [5] (setting [17]), “+”; in the experiment on Y. enterocolitica [6] (setting [10]), “-”; in the experiment with Y. enterocolitica [6] (setting [11]), “+”. The growth result in the experiment on Y. enterocolitica [6] (setting [12]), in the experiment on Y. enterocolitica [6] (setting [13]), in the experiment on Y. enterocolitica [6] (setting [14]), in the experiment with Y. enterocolitica [6] (setting [15]), with Y. enterocolitica [6] (setting [16]) and in the experiment with Y. enterocolitica [6] (setting [17]) was “+” throughout. The “antagonism of Ga-PPIX antibacterial activity” value with S. aureus [4] (heme 10- to 100-fold molar excess, protoporphyrin IX 100-fold excess) is on record as “did not antagonize”; in the experiment with M. smegmatis [5] (heme 10- to 100-fold molar excess, protoporphyrin IX 20- and 100-fold excess) it was “did not antagonize”. For the same compound, the “toxic effect on S. aureus” value in the experiment on S. aureus [4] (heme dissolved in 20 mM NaOH) is on record as “not observed”.
Regarding `CCC1=C(C)C2=Cc3c(C)c(CCC(=O)O)c4[n]3[Ga][n]3c(c(C)c(CC)c3=CC3=NC(=C4)C(CCC(=O)O)=C3C)=CC1=N2` [GA-MP-IX], the MIC was 2.5 and 5 against Y. enterocolitica [1] (in µg/mL); 1.6 µg/mL in the experiment with S. aureus [2]; 0.4 µg/mL against M. smegmatis [3]. The “Minimal bactericidal concentration (MBC)” value in the experiment on Y. enterocolitica [7] is 5; in the experiment on S. aureus [8], over 13; in the experiment with M. smegmatis [9], 10.
For the compound `CCC1=C(CC)c2cc3[nH]c(cc4nc(cc5[nH]c(cc1n2)c(CC)c5CC)C(CC)=C4CC)c(CC)c3CC.[Ga]` [GA-OEP], the MIC in the experiment with Y. enterocolitica [1] (in µg/mL) amounted to 20; against S. aureus [2] it was 10 µg/mL; in the experiment with M. smegmatis [3], 5 µg/mL. In addition, the results for the “Minimal bactericidal concentration (MBC)” value in the experiment with Y. enterocolitica [7], with S. aureus [8] and in the experiment with M. smegmatis [9] were over 20, 5 and 10, respectively.
In the case of `C1=CC2=NC1=Cc1ccc3[n]1[Ga][n]1c(ccc1=CC1=NC(=C3)C=C1)=C2` [GA-POR], the MIC in the experiment on Y. enterocolitica [1] (in µg/mL) came to 20; in the experiment with S. aureus [2] it was 50 µg/mL; in the experiment on M. smegmatis [3], 5 µg/mL.
`C=CC1=C(C)C2=Cc3c(C=C)c(C)c4[n]3[Gd]([Cl])[n]3c(c(C)c(CCC(=O)O)c3=CC3=NC(=C4)C(C)=C3CCC(=O)O)=CC1=N2` [Gd-PPIX, Gadolinium protoporphyrin IX]: the “Minimal bactericidal concentration (MBC)” value in the experiment on Y. enterocolitica [7] turned out to be 10.
As for `CCC1=C(C)c2cc3[nH]c(cc4nc(cc5[nH]c(cc1n2)c(C)c5CCC(=O)O)C(CCC(=O)O)=C4C)c(C)c3CC` [MP-IX, mesoporphyrin IX, reference compound], the “antibacterial activity” value with S. aureus [2] and with M. smegmatis [3] was “largely inactive” throughout. Moreover, the results for the MIC in the experiment on S. aureus [2] (setting [18]) and in the experiment with M. smegmatis [3] (setting [19]) were 20 µg/mL (≈ 35.3 µM) and over 40 µg/mL, respectively. The MBC (commonly the lowest tested concentration that kills the bacteria rather than only halting them) against Y. enterocolitica [7] was over 10 µg/mL; against S. aureus [8], over 13 µg/mL; against M. smegmatis [9] it was over 40 µg/mL.
`C=CC1=C(C)c2cc3[n-]c(cc4[n-]c(cc5nc(cc1n2)C(C)=C5C=C)c(C)c4CCC(=O)[O-])c(CCC(=O)[O-])c3C.[H+].[H+].[Ni+2]` [Ni-PPIX]: the “Minimal inhibitory concentration (MIC)” value in the experiment with Y. enterocolitica [1] is over 40; in the experiment with S. aureus [2] it was over 40 µg/mL; in the experiment on M. smegmatis [3] it was 20 µg/mL.
For the compound `CCC1=C(CC)c2cc3[nH]c(cc4nc(cc5[nH]c(cc1n2)c(CC)c5CC)C(CC)=C4CC)c(CC)c3CC` [OEP, octaethylporphine, reference compound], the MIC was found to be 5 µg/mL (≈ 9.35 µM) with Y. enterocolitica [1] (Yersinia enterocolitica), 10 µg/mL (≈ 18.7 µM) in the experiment with S. aureus [2] (setting [18]) and 10 µg/mL (≈ 18.7 µM) in the experiment with M. smegmatis [3] (setting [19]). The minimum bactericidal concentration (MBC) in the experiment on Y. enterocolitica [7] came to 5 µg/mL (≈ 9.35 µM); in the experiment on M. smegmatis [9] it was 10 µg/mL (≈ 18.7 µM). The “Minimal bactericidal concentration (MBC)” value with S. aureus [8] is given as 5/10.
As for `C1=Cc2cc3ccc(cc4nc(cc5ccc(cc1n2)[nH]5)C=C4)[nH]3` [POR, porphine, reference compound], the MIC in the experiment with Y. enterocolitica [1] (Yersinia enterocolitica, read-out: MIC) is 30 µg/mL (≈ 96.7 µM); in the experiment on Y. enterocolitica [1] (in µg/mL), 20; in the experiment on S. aureus [2] (setting [18]), 50 µg/mL (≈ 161 µM); with M. smegmatis [3] (setting [19]) it was over 40 µg/mL. For the same compound, the “MICs” value with bacteria is on record as “very large MICs”.
On to `C=CC1=C(C)c2cc3[n-]c(cc4nc(cc5[n-]c(cc1n2)c(C)c5CCC(=O)O)C(CCC(=O)O)=C4C)c(C)c3C=C.[Pt+2]` [Pt-PPIX, Platinum protoporphyrin IX], for which the “Minimal inhibitory concentration (MIC)” value in the experiment on Y. enterocolitica [1] was 30; in the experiment on S. aureus [2], 40 µg/mL; in the experiment with M. smegmatis [3] it was 20 µg/mL.
Consider `O=C(O)CCC1=C(CC(=O)O)c2cc3[nH]c(cc4nc(cc5[nH]c(cc1n2)c(CC(=O)O)c5CCC(=O)O)C(CC(=O)O)=C4CCC(=O)O)c(CC(=O)O)c3CCC(=O)O` [UP-1, uroporphyrin I, reference compound], for which the “HemR requirement of bacterial sensitivity” value with Y. enterocolitica [1] is “did not require expression of HemR”. Moreover, the MIC worked out at 10 µg/mL (≈ 12 µM) with Y. enterocolitica [1] (Yersinia enterocolitica), 20 µg/mL (≈ 24.1 µM) in the experiment with S. aureus [2] (setting [18]) and 20 µg/mL (≈ 24.1 µM) with M. smegmatis [3] (setting [19]). Also, the “antibacterial activity” value with S. aureus [2] and in the experiment with M. smegmatis [3] was “largely inactive” each time. For the same compound, in the experiment on Y. enterocolitica [7], the “Minimal bactericidal concentration (MBC)” value is 5/10. For the same compound, the values for the MBC against S. aureus [8] and in the experiment with M. smegmatis [9] were 20 µg/mL (≈ 24.1 µM) and 10 µg/mL (≈ 12 µM), respectively.
On to `CC1(C)S[C@@H]2[C@H](NC(=O)[C@H](N)c3ccccc3)C(=O)N2[C@H]1C(=O)O` [ampicillin, reference compound], for which the “effect of iron restriction medium conditions on MIC” value in the experiment with bacteria (setting [20]) was “not affected”.
Same read-out and setting: the entry for `O=C(N[C@H](CO)[C@H](O)c1ccc([N+](=O)[O-])cc1)C(Cl)Cl` [chloramphenicol, reference compound] is “not affected”.
In the case of `CN[C@H](CC(C)C)C(=O)N[C@H]1C(=O)N[C@@H](CC(N)=O)C(=O)N[C@H]2C(=O)N[C@H]3C(=O)N[C@H](C(=O)N[C@H](C(=O)O)c4cc(O)cc(O)c4-c4cc3ccc4O)[C@H](O)c3ccc(c(Cl)c3)Oc3cc2cc(c3O[C@@H]2O[C@H](CO)[C@@H](O)[C@H](O)[C@H]2O[C@H]2C[C@](C)(N)[C@H](O)[C@H](C)O2)Oc2ccc(cc2Cl)[C@H]1O` [vancomycin, reference compound], the “effect of iron restriction medium conditions on MIC” value with bacteria is listed as “not affected”.
Take Gallium (+3) hematoporphyrin IX: in the experiment with bacteria, the “antibacterial activity” value is on record as “active against all microorganisms challenged”.
